From ChEMBL document CHEMBL5608185, “Design, synthesis and evaluation of carbamate-bridged amino acid prodrugs of cycloicaritin with improved antitumor activity, aqueous solubility and phase II metabolic stability” (Eur J Med Chem, 2024)
In brackets after ≈: the same amount, converted by molar mass.

How the values were obtained:
[1] = Aqueous solubility of the compound incubated for 72 hrs by shake-flask method; format: physicochemical; settings: buffer
[2] = Octanol/water partition coefficient, logP of the compound incubated for 72 hrs by HPLC-MS/MS analysis; format: physicochemical
[3] = Chemical stability of the compound assessed as half life at pH 1.2 by HPLC analysis; format: physicochemical; settings: buffer
[4] = Chemical stability of the compound assessed as half life at pH 4.5 by HPLC analysis; format: physicochemical; settings: buffer
[5] = Chemical stability of the compound assessed as half life at pH 6.8 by HPLC analysis; format: physicochemical; settings: buffer
[6] = Chemical stability of the compound assessed as half life at pH 7.4 by HPLC analysis; format: physicochemical; settings: buffer
[7] = Chemical stability of the compound in simulated gastric fluid assessed as half life by HPLC analysis; format: ADME, physicochemical
[8] = Chemical stability of the compound in simulated intestinal fluid assessed as half life by HPLC analysis; format: ADME, physicochemical
[9] = Stability in Sprague-Dawley rat intestine homogenates assessed as half life at pH 7.4 by HPLC analysis; format: ADME, tissue-based
[10] = Stability in Sprague-Dawley rat liver homogenates assessed as half life at pH 7.4 by HPLC analysis; format: ADME, tissue-based
[11] = Stability in Sprague-Dawley rat blood homogenates assessed as half life at pH 7.4 by HPLC analysis; format: ADME, tissue-based
[12] = Stability at phase II in rat liver microsomes assessed as half life at 10 uM measured every 10 mins for 70 mins by HPLC-UV analysis; format: ADME, Microsome
[13] = Stability in rat liver microsomes assessed as parent compound remaining at 10 uM measured after 70 mins by HPLC-UV analysis; format: ADME, Microsome; settings: read-out: Stability
[14] = Drug uptake in human Caco-2 cells over 1 to 100 uM incubated for 10 mins by HPLC-MS/MS analysis; format: ADME, cell-based; settings: caco-2, 10 min, dose 1-100 µM
[15] = Oral bioavailability in rat; format: ADME, organism-based; settings: in vivo
[16] = Drug uptake in human Caco-2 cells at 5 uM at pH 7.4 incubated for 10 mins by HPLC-MS/MS analysis; format: ADME, cell-based; settings: caco-2, pH 7.4, 10 min
[17] = Drug uptake in human Caco-2 cells at 5 uM incubated for 10 mins in presence of Estrone-3-sulfate by HPLC-MS/MS analysis; format: ADME, cell-based; settings: caco-2, 10 min
[18] = Drug uptake in human Caco-2 cells at 5 uM incubated for 10 mins in presence of fexofenadine by HPLC-MS/MS analysis; format: ADME, cell-based; settings: caco-2, 10 min
[19] = Drug uptake in human Caco-2 cells at 5 uM at pH 6.0 incubated for 10 mins by HPLC-MS/MS analysis; format: ADME, cell-based; settings: caco-2, pH 6, 10 min
[20] = Drug uptake in human Caco-2 cells at 5 uM incubated for 10 mins in presence of glycyl-sarcosine by HPLC-MS/MS analysis; format: ADME, cell-based; settings: caco-2, 10 min
[21] = test system: HepG2; assay: Cytotoxicity against human HepG2 cells assessed as reduction in cell viability incubated for 72 hrs by MTT assay; format: functional, cell-based
[22] = test system: 4T1; assay: Cytotoxicity against mouse 4T1 cells assessed as reduction in cell viability incubated for 72 hrs by MTT assay; format: functional, cell-based
[23] = Cytotoxicity against mouse 3T3 cells assessed as reduction in cell viability incubated for 72 hrs by MTT assay; format: toxicity, cell-based; settings: NIH3T3 cells
[24] = Cmax in male Sprague-Dawley rat at 20 mg/kg, po measured up to 12 hrs in presence of fexofenadine by HPLC-MS/MS analysis; format: ADME, organism-based; settings: in vivo, with fexofenadine (dose not stated)
[25] = Cmax in male Sprague-Dawley rat at 20 mg/kg, po measured up to 12 hrs in presence of glycyl-sarcosine by HPLC-MS/MS analysis; format: ADME, organism-based; settings: in vivo, with glycyl-sarcosine (dose not stated)
[26] = AUC (0 to t) in male Sprague-Dawley rat at 20 mg/kg, po measured up to 12 hrs in presence of fexofenadine by HPLC-MS/MS analysis; format: ADME, organism-based; settings: in vivo, with fexofenadine (dose not stated)
[27] = AUC (0 to t) in male Sprague-Dawley rat at 20 mg/kg, po measured up to 12 hrs in presence of glycyl-sarcosine by HPLC-MS/MS analysis; format: ADME, organism-based; settings: in vivo, with glycyl-sarcosine (dose not stated)
[28] = test system: 4T1; assay: Antitumor activity against mouse 4T1 cells xenografted in BALB/c mouse model assessed as reduction in tumor growth administered once daily via oral gavage and measured every two days for 16 days; format: functional, cell-based; settings: dose 35-150 mg/kg, time 16.0 day
[29] = Toxicity in BALB/c mouse assessed as effect on body weight at 35 to 150 mg/kg, po measured after 16 days; format: organism-based; settings: in vivo, 384 h, dose 35-150 mg/kg, time 16 day
[30] = Toxicity in BALB/c mouse assessed as effect on ALT level at 35 to 150 mg/kg, po measured after 16 days; format: organism-based; settings: in vivo, 384 h, dose 35-150 mg/kg, time 16 day
[31] = Toxicity in BALB/c mouse assessed as effect on AST level at 35 to 150 mg/kg, po measured after 16 days; format: organism-based; settings: in vivo, 384 h, dose 35-150 mg/kg, time 16 day
[32] = Toxicity in BALB/c mouse assessed as effect on CREA level at 35 to 150 mg/kg, po measured after 16 days; format: organism-based; settings: in vivo, 384 h, dose 35-150 mg/kg, time 16 day
[33] = Toxicity in BALB/c mouse assessed as effect on BUN level at 35 to 150 mg/kg, po measured after 16 days; format: organism-based; settings: in vivo, 384 h, dose 35-150 mg/kg, time 16 day
[34] = Prodrug conversion in Sprague-Dawley rat assessed as Cmax of cycloicaritin metabolite at 20 mg/kg, po measured up to 12 hrs by HPLC-MS/MS analysis; format: ADME, organism-based; settings: in vivo
[35] = Prodrug conversion in Sprague-Dawley rat assessed as Tmax of cycloicaritin metabolite at 20 mg/kg, po measured up to 12 hrs by HPLC-MS/MS analysis; format: ADME, organism-based; settings: in vivo
[36] = Prodrug conversion in Sprague-Dawley rat assessed as half life of cycloicaritin metabolite at 20 mg/kg, po measured up to 12 hrs by HPLC-MS/MS analysis; format: ADME, organism-based; settings: in vivo
[37] = Prodrug conversion in Sprague-Dawley rat assessed as AUC (0 to t) of cycloicaritin metabolite at 20 mg/kg, po measured up to 12 hrs by HPLC-MS/MS analysis; format: ADME, organism-based; settings: in vivo
[38] = Cmax in Sprague-Dawley rat at 20 mg/kg, po measured upto 12 hrs by HPLC-MS/MS analysis; format: ADME, organism-based; settings: in vivo
[39] = Tmax in Sprague-Dawley rat at 20 mg/kg, po measured upto 12 hrs by HPLC-MS/MS analysis; format: ADME, organism-based; settings: in vivo
[40] = Half life in Sprague-Dawley rat at 20 mg/kg, po measured upto 12 hrs by HPLC-MS/MS analysis; format: ADME, organism-based; settings: in vivo
[41] = AUC (0 to t) in Sprague-Dawley rat at 20 mg/kg, po measured upto 12 hrs by HPLC-MS/MS analysis; format: ADME, organism-based; settings: in vivo
[42] = Drug metabolism in rat liver microsomes at 10 uM measured upto 70 mins by HPLC-UV analysis; format: ADME, Microsome; settings: 1.167 h
[43] = Drug uptake in human Caco-2 cells over 0.5 to 50 uM incubated for 10 mins by HPLC-MS/MS analysis; format: ADME, cell-based; settings: caco-2, 10 min, dose 0.5-50 µM
[44] = Selectivity ratio of cytotoxicity against human HepG2 cells to cytotoxicity against mouse 4T1 cells

COc1ccc(-c2oc3c4c(cc(O)c3c(=O)c2OC(=O)N[C@@H](Cc2ccccc2)C(=O)O)OC(C)(C)CC4)cc1
solubility thermodynamic at 72 h [1]: 2.68 µM (≈ 1.5 µg/mL)
logP at 72 h [2]: 4.33
half-life [3]: > 12 h
half-life [4]: > 12 h
half-life [5]: > 12 h
half-life [6]: 6.09 h
half-life [7]: > 12 h
half-life [8]: > 12 h
half-life [9]: 5.85 h
half-life [10]: 6.04 h
half-life [11]: 0.45 h
half-life at 10 µM [12]: > 1.16 h
remaining at 1.167 h, 10 µM [13]: 76%
Drug uptake [14]: Not Active

COc1ccc(-c2oc3c(CC=C(C)C)c(O)cc(O)c3c(=O)c2O)cc1 [ICARITIN]
bioavailability [15]: 4.3%

COc1ccc(-c2oc3c4c(cc(O)c3c(=O)c2OC(=O)N[C@H](C(=O)O)C(C)C)OC(C)(C)CC4)cc1
solubility thermodynamic at 72 h [1]: 5.69 µM (≈ 2.91 µg/mL)
logP at 72 h [2]: 2.75
half-life [3]: > 12 h
half-life [4]: > 12 h
half-life [5]: > 12 h
half-life [6]: 8.17 h
half-life [7]: > 12 h
half-life [8]: > 12 h
half-life [9]: 7.22 h
half-life [10]: 7.99 h
half-life [11]: 0.47 h
half-life at 10 µM [12]: > 1.16 h
remaining at 1.167 h, 10 µM [13]: 76%
Drug uptake [14]: Not Active
Drug uptake [16]: Not Active
Drug uptake [17]: Not Active
Drug uptake [18]: Not Active

COc1ccc(-c2oc3c4c(cc(O)c3c(=O)c2OC(=O)NCC(=O)O)OC(C)(C)CC4)cc1
solubility thermodynamic at 72 h [1]: 3.64 µM (≈ 1.71 µg/mL)
logP at 72 h [2]: 3.66
half-life [3]: > 12 h
half-life [4]: > 12 h
half-life [5]: 5.21 h
half-life [6]: 1.96 h
half-life [7]: > 12 h
half-life [8]: 5.24 h
half-life [9]: 1.89 h
half-life [10]: 1.96 h
half-life [11]: 0.25 h
half-life at 10 µM [12]: > 1.16 h
remaining at 1.167 h, 10 µM [13]: 76%
Drug uptake [14]: Not Active

COc1ccc(-c2oc3c4c(cc(O)c3c(=O)c2OC(=O)N[C@@H](CC(C)C)C(=O)O)OC(C)(C)CC4)cc1
solubility thermodynamic at 72 h [1]: 13 µM (≈ 6.84 µg/mL)
logP at 72 h [2]: 3.42
half-life [3]: > 12 h
half-life [4]: > 12 h
half-life [5]: > 12 h
half-life [6]: > 12 h
half-life [7]: > 12 h
half-life [8]: > 12 h
half-life [9]: 8.67 h
half-life [10]: 8.6 h
half-life [11]: 0.5 h
half-life at 10 µM [12]: > 1.16 h
remaining at 1.167 h, 10 µM [13]: 76%
Drug uptake [14]: Not Active
Drug uptake [19]: Active
Drug uptake [16]: Not Active
Drug uptake [17]: Not Active
Drug uptake [18]: Not Active
Drug uptake [20]: Active
Activity [21]: Dose-Dependent Effect
Activity [22]: Dose-Dependent Effect
IC50 at 72 h [23]: > 100 µM
Cmax [24]: 47.4 nM
Cmax [25]: 204 nM
AUC(0-t) at 12 h [26]: 0.303 µM·h
AUC(0-t) at 12 h [27]: 0.812 µM·h
Activity [28]: Dose-Dependent Effect
Activity [29]: Non-Toxic
Activity [30]: Non-Toxic
Activity [31]: Non-Toxic
Activity [32]: Non-Toxic
Activity [33]: Non-Toxic
Cmax [34]: 66.6 nM
Tmax [35]: 0.9 h
t1/2 [36]: 6.96 h
AUCt [37]: 0.1587 µM·h
Cmax [38]: 156 nM
Tmax [39]: 1 h
half-life [40]: 5.34 h
AUC(0-t) at 12 h [41]: 0.463 µM·h

CC[C@H](C)[C@H](NC(=O)Oc1c(-c2ccc(OC)cc2)oc2c3c(cc(O)c2c1=O)OC(C)(C)CC3)C(=O)O
solubility thermodynamic at 72 h [1]: 11.4 µM (≈ 6.01 µg/mL)
logP at 72 h [2]: 2.69
half-life [3]: > 12 h
half-life [4]: > 12 h
half-life [5]: > 12 h
half-life [6]: 4.97 h
half-life [7]: > 12 h
half-life [8]: > 12 h
half-life [9]: 4.71 h
half-life [10]: 4.62 h
half-life [11]: 0.36 h
half-life at 10 µM [12]: > 1.16 h
remaining at 1.167 h, 10 µM [13]: 76%
Drug uptake [14]: Not Active
Drug uptake [16]: Not Active
Drug uptake [17]: Not Active
Drug uptake [18]: Not Active

COc1ccc(-c2oc3c4c(cc(O)c3c(=O)c2O)OC(C)(C)CC4)cc1
solubility thermodynamic at 72 h [1]: 0.81 µM (≈ 0.298 µg/mL)
logP at 72 h [2]: 3.8
half-life [3]: > 12 h
half-life [4]: > 12 h
half-life [5]: > 12 h
half-life [6]: > 12 h
half-life [7]: > 12 h
half-life [8]: > 12 h
half-life [9]: > 12 h
half-life [10]: > 12 h
half-life [11]: > 12 h
half-life at 10 µM [12]: 0.62 h
Drug metabolism [42]: Metabolite_Detected
remaining at 1.167 h, 10 µM [13]: 27%
Drug uptake [43]: Active
Drug uptake [19]: Active
Drug uptake [16]: Active
Drug uptake [17]: Active
Drug uptake [18]: Active
Drug uptake [20]: Active
Activity [21]: Dose-Dependent Effect
Activity [22]: Dose-Dependent Effect
Selectivity ratio [44]: 1.8
IC50 at 72 h [23]: > 50 µM

COc1ccc(-c2oc3c4c(cc(O)c3c(=O)c2OC(=O)N[C@@H](CCC(=O)O)C(=O)O)OC(C)(C)CC4)cc1
solubility thermodynamic at 72 h [1]: 1.1 µM (≈ 0.596 µg/mL)
